Test results: patent US9290485B2, “N-((6-amino-pyridin-3-yl)methyl)-heteroaryl-carboxamides” (NOVARTIS AG, priority 2010, dated 2016)

Target: T1, human plasma kallikrein (Homo sapiens (Human), UniProt P03952)
Test: not given
Conditions: human plasma kallikrein 25 pM, substrate 0.5 uM, 1 hour pre-incubation at room temperature, read at t=60 min

T1 sequence (P03952 whole entry, looked up): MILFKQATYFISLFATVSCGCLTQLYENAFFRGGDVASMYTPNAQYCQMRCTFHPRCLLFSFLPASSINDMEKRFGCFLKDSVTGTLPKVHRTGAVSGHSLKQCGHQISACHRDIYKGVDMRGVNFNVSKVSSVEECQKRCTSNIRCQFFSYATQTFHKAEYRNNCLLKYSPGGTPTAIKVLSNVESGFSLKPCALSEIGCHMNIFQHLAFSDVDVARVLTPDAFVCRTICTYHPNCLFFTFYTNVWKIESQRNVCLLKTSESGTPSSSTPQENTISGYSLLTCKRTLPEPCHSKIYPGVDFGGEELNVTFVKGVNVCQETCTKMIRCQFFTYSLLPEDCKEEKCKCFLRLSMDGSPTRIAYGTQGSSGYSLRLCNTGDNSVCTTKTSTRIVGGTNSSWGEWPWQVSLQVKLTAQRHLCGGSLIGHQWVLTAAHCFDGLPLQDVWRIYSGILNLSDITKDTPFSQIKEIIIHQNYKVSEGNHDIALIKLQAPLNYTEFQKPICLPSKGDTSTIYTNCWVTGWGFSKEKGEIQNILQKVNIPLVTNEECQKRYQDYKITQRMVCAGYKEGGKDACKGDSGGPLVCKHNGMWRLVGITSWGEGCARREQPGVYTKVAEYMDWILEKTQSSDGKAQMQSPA
T1 sequence (P03952 whole entry partner, looked up): as the sequence (P03952 whole entry, looked up) above

SMILES | IC50 [nM]
Nc1ccc(CNC(=O)c2cnn(Cc3ccccc3)c2)cn1 [Example 182, N-((6-Aminopyridin-3-yl)methyl)-1-benzyl-1H-pyrazole-4-carboxamide] | > 100000
Cc1cc(N)nc(C)c1CNC(=O)c1cnn(Cc2noc3ccccc23)c1 [Example 106, N-((6-amino-2,4-dimethylpyridin-3-yl)methyl)-1-(benzo[d]isoxazol-3-ylmethyl)-1H-pyrazole-4-carboxamide] | 415
Cc1cc(N)nc(C)c1CNC(=O)c1ccc(Oc2ccccc2)o1 [Example 48, N-((6-amino-2,4-dimethylpyridin-3-yl)methyl)-5-phenoxyfuran-2-carboxamide] | 35500
Cc1cc(N)nc(C)c1CNC(=O)c1cnn(Cc2cc3ccccc3o2)n1 [Example 44, N-((6-amino-2,4-dimethylpyridin-3-yl)methyl)-2-(benzofuran-2-ylmethyl)-2H-1,2,3-triazole-4-carboxamide] | 215
Cc1cc(N)nc(C)c1CNC(=O)c1cnn(Cc2ccc(N3CCCC3=O)cc2)c1 [Example 65, N-((6-amino-2,4-dimethylpyridin-3-yl)methyl)-1-(4-(2-oxopyrrolidin-1-yl)benzyl)-1H-pyrazole-4-carboxamide] | 29
Cc1cc(N)nc(C)c1CNC(=O)c1cn(Cc2cccc(N3CCCC3)c2)nn1 [Example 43, N-((6-amino-2,4-dimethylpyridin-3-yl)methyl)-1-(3-(pyrolidin-1-yl)benzyl)-1H-1,2,3-triazole-4-carboxamide] | 113
Cc1cc(N)nc(C)c1CNC(=O)c1nc(Cc2ccccc2)no1 [Example 5, N-((6-amino-2,4-dimethylpyridin-3-yl)methyl)-3-benzyl-1,2,4-oxadiazole-5-carboxamide] | 4500
COc1cc(N)nc(C)c1CNC(=O)c1cnn(Cc2ccccc2)c1 [Example 14, N-((6-amino-4-methoxy-2-methylpyridin-3-yl)methyl)-1-benzyl-1H-pyrazole-4-carboxamide] | 320
Cc1cc(N)ncc1CNC(=O)c1cnn(Cc2ccccc2)c1 [Example 138, N-((6-amino-4-methylpyridin-3-yl)methyl)-1-benzyl-1H-pyrazole-4-carboxamide] | 62700
Cc1cc(N)nc(C)c1CNC(=O)c1cnn(Cc2ccc3c(c2)cc(C)n3C)c1 [Example 168, N-((6-Amino-2,4-dimethylpyridin-3-yl)methyl)-1-((1,2-dimethyl-1H-indol-5-yl)methyl)-1H-pyrazole-4-carboxamide] | 0.1
Cc1cc(N)nc(C)c1CNC(=O)c1cnn(Cc2ccc(OCc3ccccc3)cc2)c1 [Example 94, N-((6-amino-2,4-dimethylpyridin-3-yl)methyl)-1-(4-(benzyloxy)benzyl)-1H-pyrazole-4-carboxamide] | 2.1
Cc1cc(N)nc(C)c1CNC(=O)c1cnn(Cc2ccc(NC(=O)NC3CC3)cc2)c1 [Example 112, N-((6-amino-2,4-dimethylpyridin-3-yl)methyl)-1-(4-(3-cyclopropylureido)benzyl)-1H-pyrazole-4-carboxamide] | 229
Cc1cc(N)nc(C)c1CNC(=O)c1cnn(Cc2ccc(Cn3ccccc3=O)cc2)c1 [Example 142, N-((6-amino-2,4-dimethylpyridin-3-yl)methyl)-1-(4-((2-oxopyridin-1(2H)-yl)methyl)benzyl)-1H-pyrazole-4-carboxamide] | 0.0224
Cc1cc(N)nc(C)c1CNC(=O)c1cnn(Cc2cc3ccccc3o2)c1 [Example 31] | 143
Cc1cc(N)nc(C)c1CNC(=O)c1cnn(Cc2ccc(OCC#N)cc2)c1 [Example 135, N-((6-amino-2,4-dimethylpyridin-3-yl)methyl)-1-(4-(cyanomethoxy)benzyl)-1H-pyrazole-4-carboxamide] | 89
Cc1nc(N)cc(Cl)c1CNC(=O)c1cnn(Cc2ccc(Cn3ccccc3=O)cc2)c1 [Example 167, N-((6-Amino-4-chloro-2-methylpyridin-3-yl)methyl)-1-(4-((2-oxopyridin-1(2H)-yl)methyl)benzyl)-1H-pyrazole-4-carboxamide] | 0.2
Cc1cc(N)nc(C)c1CNC(=O)c1cn(Cc2cccc(-n3cccn3)c2)nn1 [Example 42, 1-(3-(1H-pyrazol-1-yl)benzyl)-N-((6-amino-2,4-dimethylpyridin-3-yl)methyl)-1H-1,2,3-triazole-4-carboxamide] | 145

SMILES | IC50 [nM]
Cc1cnn(Cc2ccc(Cn3cc(C(=O)NCc4c(C)cc(N)nc4C)cn3)cc2)c1 [Example 146, N-((6-amino-2,4-dimethylpyridin-3-yl)methyl)-1-(4-((4-methyl-1H-pyrazol-1-yl)methyl)benzyl)-1H-pyrazole-4-carboxamide] | 0.04
Cc1cc(N)nc(C)c1CNC(=O)c1cnn(Cc2csc(CC(=O)N(C)C)n2)c1 [Example 29, N-((6-amino-2,4-dimethylpyridin-3-yl)methyl)-1-((2-(2-(dimethylamino)-2-oxoethyl)thiazol-4-yl)methyl]-1H-pyrazole-4-carboxamide] | 248
Cc1nc(N)cc(Br)c1CNC(=O)c1cnn(Cc2ccccc2)c1 [Example 181, N-((6-Amino-4-bromo-2-methylpyridin-3-yl)methyl)-1-benzyl-1H-pyrazole-4-carboxamide] | 37000
Cc1noc(-c2ccc(Cn3cc(C(=O)NCc4c(C)cc(N)nc4C)cn3)cc2)n1 [Example 91, N-((6-amino-2,4-dimethylpyridin-3-yl)methyl)-1-(4-(3-methyl-1,2,4-oxadiazol-5-yl)benzyl)-1H-pyrazole-4-carboxamide] | 133
Cc1cc(N)nc(C)c1CNC(=O)c1cnn(Cc2ccc(CN3CCCC3=O)cc2)c1 [Example 143, N-((6-amino-2,4-dimethylpyridin-3-yl)methyl)-1-(4-((2-oxopyrrolidin-1-yl)methyl)benzyl)-1H-pyrazole-4-carboxamide] | 2.6
Cc1cc(N)nc(C)c1CNC(=O)c1cnn(Cc2ccc(CN3CCOCC3)cc2)c1 [Example 110, N-((6-amino-2,4-dimethylpyridin-3-yl)methyl)-1-(4-(morpholinomethyl)benzyl)-1H-pyrazole-4-carboxamide] | 249
Cc1cc(N)nc(C)c1CNC(=O)c1csc(Cc2ccccc2)n1 [Example 47, N-((6-amino-2,4-dimethylpyridin-3-yl)methyl)-2-benzylthiazole-4-carboxamide] | 3200
Cc1cn(S(=O)(=O)c2ccccc2)cc1C(=O)NCc1c(C)cc(N)nc1C [Example 74, N-((6-amino-2,4-dimethylpyridin-3-yl)methyl)-4-methyl-1-(phenylsulfonyl)-1H-pyrrole-3-carboxamide] | 595
Cc1cc(N)nc(C)c1CNC(=O)c1cnn(Cc2ccc3c(c2)CCS3(=O)=O)c1 [Example 174, N-((6-amino-2,4-dimethylpyridin-3-yl)methyl)-1-((1,1-dioxido-2,3-dihydrobenzo[b]thiophen-5-yl)methyl)-1H-pyrazole-4-carboxamide] | 75
Cc1cc(N)nc(C)c1CNC(=O)c1cn(Cc2ccccc2C#N)c2ccccc12 [Example 107, N-((6-amino-2,4-dimethylpyridin-3-yl)methyl)-1-(2-cyanobenzyl)-1H-indole-3-carboxamide] | 1800
Cc1cc(N)nc(C)c1CNC(=O)c1c(C)c(C)n(S(=O)(=O)c2ccccc2)c1C [Example 183, N-((6-Amino-2,4-dimethylpyridin-3-yl)methyl)-2,4,5-trimethyl-1-(Phenylsulfonyl)-1H-pyrrole-3-carboxamide] | > 100000
Cc1cc(N)nc(C)c1CNC(=O)c1cn(Cc2ccc(Cn3cccn3)cc2)cn1 [Example 6, 1-(4-((1H-pyrazol-1-yl)methyl)benzyl)-N-((6-amino-2,4-dimethylpyridin-3-yl)methyl)-1H-imidazole-4-carboxamide] | 0.2
Cc1cc(N)nc(C)c1CNC(=O)c1cnn(Cc2ccc(Cn3ccnn3)cc2)c1 [Example 140, 1-(4-((1H-1,2,3-triazol-1-yl)methyl)benzyl)-N-((6-amino-2,4-dimethylpyridin-3-yl)methyl)-1H-pyrazole-4-carboxamide] | 4.6
Cc1cc(N)nc(C)c1CNC(=O)c1ncn(Cc2cccc3ccccc23)n1 [Example 62, N-((6-amino-2,4-dimethylpyridin-3-yl)methyl)-1-(naphthalen-1-ylmethyl)-1H-1,2,4-triazole-3-carboxamide] | 681
Cc1cc(N)nc(C)c1CNC(=O)c1cnn(C(C)c2ccccc2)c1 (centres unmarked) [Example 100, N-((6-amino-2,4-dimethylpyridin-3-yl)methyl)-1-(1-phenylethyl)-1H-pyrazole-4-carboxamide] | 642
Cc1cn2cc(Cn3cc(C(=O)NCc4c(C)cc(N)nc4C)cn3)ccc2n1 [Example 169, N-((6-amino-2,4-dimethylpyridin-3-yl)methyl)-1-((2-methylimidazo[1,2-a]pyridin-6-yl)methyl)-1H-pyrazole-4-carboxamide] | 3

Target: T1, human plasma kallikrein
Test: biochemical
Conditions: not given

SMILES | IC50 [nM]
Cc1cc(N)nc(C)c1CNC(=O)c1cnn(Cc2ccc3ncc(Cl)cc3c2)c1 [Example 173, N-((6-Amino-2,4-dimethylpyridin-3-yl)methyl)-1-((3-chloroquinolin-6-yl)methyl)-1H-pyrazole-4-carboxamide] | 0.4
Cc1cc(N)nc(C)c1CNC(=O)c1cnn(Cc2nc3ccccc3nc2C)c1 [Example 104, N-((6-amino-2,4-dimethylpyridin-3-yl)methyl)-1-((3-methylquinoxalin-2-yl)methyl)-1H-pyrazole-4-carboxamide] | 113
Cc1cc(N)nc(C)c1CNC(=O)c1cnn(Cc2cccc(CO)n2)c1 [Example 99, N-((6-amino-2,4-dimethylpyridin-3-yl)methyl)-1-((6-(hydroxymethyl)pyridin-2-yl)methyl)-1H-pyrazole-4-carboxamide] | 7000

Same assay, conditions: read-out: % inhibition at 100 μM

SMILES | inhibition at 100 µM [%]
Nc1ccc(CNC(=O)c2cnn(Cc3ccccc3)c2)cn1 [Example 182, N-((6-Aminopyridin-3-yl)methyl)-1-benzyl-1H-pyrazole-4-carboxamide] | 38
Cc1cc(N)nc(C)c1CNC(=O)c1c(C)c(C)n(S(=O)(=O)c2ccccc2)c1C [Example 183, N-((6-Amino-2,4-dimethylpyridin-3-yl)methyl)-2,4,5-trimethyl-1-(Phenylsulfonyl)-1H-pyrrole-3-carboxamide] | 39
